{"source": "patent US20030143548A1", "about": "“Predicting patient responsiveness to serotonergic therapy” (priority 2002, published 2003)", "key": {"[1]": {"system": "patients with diarrhea-predominant IBS", "experiment": "Scintigraphic measurement of colonic transit (colonic geometric center at 24 hours) at baseline and after 6 weeks of alosetron", "assay_type": "in vivo, human", "conditions": "for change in colonic geometric center (ΔGC) at 24 hr: 6 weeks vs baseline, negative = slower transit", "from_the_text": "Colonic transit can be monitored by known methods (Camilleri M. and Zinsmeister A. R., Gastroenterology 103:36-42 (1992); and Camilleri M. et al., Dig. Dis. Sci. 36:609-615 (1991)). In general, labeled (e.g., ^111In) pellets can be delivered to the colon by means of a methacrylate-coated, delayed-release capsule. Simultaneously, labeled (e.g., ^99mTc) pellets can be ingested in a scrambled egg, toast, and milk meal to facilitate measurement of gastric and small bowel transit. A large field gamma camera (e.g., GE 500, General Electric, Milwaukee, Wis.) with a medium energy parallel hole collimator can be used to obtain images. Typically, images are obtained with subjects in the erect position. A variable region of interest (ROI) program can be used to measure colonic transit, with abdominal images obtained at periodic intervals (e.g.,4, 6, 8, 24, 32, and 48 hours pre- or post-treatment. The amount of label can be determined from the abdominal images in four colonic regions: the ascending, transverse, descending, and combined sigmoid and rectum regions. These counts may be corrected for isotope decay and tissue attenuation, as described in Camilleri et al. (1991) and Camilleri and Zinsmeister (1992), referenced above. The colonic geometric center is the weighted average of counts in the four different colonic regions [ascending (AC), transverse (TC), descending (DC), rectosigmoid (RS) and stool]:\n(% AC×1+% TC×2+% DC×3+% RS×4+% stool×5)/100=geometric center\nA high geometric center implies faster colonic transit, while a reduction of geometric center with treatment implies a retardation of colonic transit.\nThirty patients with diarrhea-predominant IBS associated were studied. Gastrointestinal and colonic transit were performed during a baseline period and during the last week of a 6-week therapeutic trial with alosetron 1 mg twice daily (b.i.d.). Demographic data of the original 30 participants are as follows: mean age 43.2±3y (females 46±4y, males 40±4y); mean duration of IBS 11.2±2.0y (females 9.2±2.3y and males 13.1±3.2y). Twenty-three of the 30 patients agreed to participate in an evaluation of the influence of the genotype of the promoter region of the 5-HTTP gene. The demographics, gender, and duration of illness in the three groups of patients according to 5-HTTP genotype are shown in the table below.\nAn established scintigraphic method was used as referenced above. Briefly, ^111In pellets were delivered to the colon by means of a methacrylate-coated, delayed-release capsule. Simultaneously, ^99mTc pellets were ingested in a scrambled egg, toast, and milk meal (218 kcal) to facilitate measurement of gastric and small bowel transit. Subjects ingested standardized meals for lunch and dinner. A variable region of interest (ROI) program was used to measure colonic transit. Abdominal images at 4, 6, 8, 24, 32, and 48 hours were obtained using a large field of view gamma camera (GE 500, General Electric, Milwaukee, Wis.) with a medium energy parallel hole collimator. All images were obtained with the subjects in the erect position. Radioscintigraphic markers were placed for reference on the anterior ends of the iliac crests. Anterior and posterior images were obtained with the camera positioned over the abdomen. This facilitated subsequent correction of radioisotopic counts for tissue attenuation.\nThe counts in four colonic regions were determined: the ascending, transverse, descending, and combined sigmoid and rectum regions. These counts were corrected for isotope decay and tissue attenuation, as referenced above. The primary endpoint of investigation was the colonic geometric center at 24 hours. The colonic geometric center is the weighted average of counts in the four different colonic regions [ascending (AC), transverse (TC), descending (DC), rectosigmoid (RS) and stool]:\nThus, a high geometric center implies faster colonic transit, while a reduction of geometric center with treatment implies a retardation of colonic transit. […]"}, "[2]": {"system": "patients with diarrhea-predominant IBS", "conditions": "cited from earlier work"}, "[3]": {"conditions": "by gender; cited from earlier work"}, "[4]": {"conditions": "females, alosetron 1 mg b.i.d., 6 weeks"}, "[5]": {"conditions": "males, alosetron 1 mg b.i.d., 6 weeks"}}}
{"molecule": "Cc1[nH]cnc1CN1CCc2c(c3ccccc3n2C)C1=O", "note": "[alosetron]", "values": [{"measurement": "number of females in whom there was no effect on colonic transit", "setting": "[1]; [4]", "value": 2}, {"measurement": "number of patients with retardation of colonic transit greater than the clinically significant threshold of 1.14 colonic regions", "setting": "[1]; [4]", "value": "Nine"}, {"measurement": "change in colonic geometric center (ΔGC) at 24 hr", "setting": "[1]; females, alosetron 1 mg b.i.d., p=0.005 vs males", "value": "−1.45±0.25", "unit": "geometric center units"}, {"measurement": "colonic transit response by 5-HTTP promoter genotype (change of 1.14 units in ΔGC24h, FIG. 2)", "setting": "[1]; genotype groups after treatment with alosetron", "value": "a greater response was observed in those with the long polymorphism"}, {"measurement": "proportion of high responders (slowing of colonic transit by more than 1.14 regions)", "setting": "[1]; heterozygous 5-HTTP promoter genotype group", "value": "2 of 11"}, {"measurement": "proportion of high responders (slowing of colonic transit by more than 1.14 regions)", "setting": "[1]; long variant homozygous 5-HTTP promoter genotype group, Fisher's exact test p=0.024 vs heterozygous", "value": "6 of 8"}, {"measurement": "colonic transit response by 5-HTTP promoter genotype", "setting": "[1]; long/long homozygous vs long/short heterozygous patients, p=0.039", "value": "significantly higher response in long variant/long variant homozygous"}, {"measurement": "males with retardation of colonic transit at 24 hours equal to or greater than the mean change in females (1.45 geometric center units)", "setting": "[1]; [5]", "value": "2 of 15"}, {"measurement": "number of patients with retardation of colonic transit greater than the clinically significant threshold of 1.14 colonic regions", "setting": "[1]; [5]", "value": 3}, {"measurement": "change in colonic geometric center (ΔGC) at 24 hr", "setting": "[1]; males, alosetron 1 mg b.i.d.", "value": "−0.32±0.27", "unit": "geometric center units"}, {"measurement": "colonic geometric centers at 24 hours following treatment compared to baseline", "setting": "[1]; patients with IBS, alosetron 1 mg b.i.d., last week of 6-week trial, lower = slower colonic transit", "value": "significantly lower"}, {"measurement": "adequate relief of IBS pain and discomfort and normalization of bowel function", "setting": "[2]; clinical trials, women with diarrhea-predominant IBS", "value": "beneficial effect"}, {"measurement": "effect on colonic transit in patients with diarrhea-predominant IBS", "setting": "[2]; greater effect in females than males", "value": "significantly prolonged"}, {"measurement": "systemic exposure, females compared to males", "setting": "[3]", "value": "slightly greater systemic exposure"}]}
